What was measured:
E. coli K12 = experiment: Effect of GM-CSF on planktonic E. coli K12 cells (total viable cells and persisters) at exponential phase, alone and with antibiotic; assay type: cell-based, Escherichia coli; conditions: for % change in avg. CFU/mL by GM-CSF (compared to GM-CSF free control) 20 μg/mL Tet / % change in avg. CFU/mL by GM-CSF (compared to GM-CSF free control) With 2 μg/mL Cip / % change in avg. CFU/mL by GM-CSF (compared to GM-CSF free control) With 70 μg/mL Tob / % change in avg. CFU/mL by GM-CSF (compared to GM-CSF free control) With 200 μg/mL Gen: E. coli K12 exponential phase, 0.17 pM GM-CSF; for % change in avg. CFU/ml after adding factor + CIP / % change in avg. CFU/ml after adding factor + TET / % change in avg. CFU/ml after adding factor + TOB / % change in avg. CFU/ml after adding factor + GEN: planktonic E. coli K12; for % change in avg. CFU/ml after adding factor + CIP: 2.43 pg/mL GM-CSF with 2 μg/mL ciprofloxacin; for % change in avg. CFU/ml after adding factor + TET: 2.43 pg/mL GM-CSF with 20 μg/mL tetracycline; for % change in avg. CFU/ml after adding factor + TOB: 2.43 pg/mL GM-CSF with 70 μg/mL tobramycin; for % change in avg. CFU/ml after adding factor + GEN: 2.43 pg/mL GM-CSF with 200 μg/mL gentamicin
Experimental: This Example describes the treatment of planktonic P. aeruginosa PAO1, PDO300 and Escherichia coli K12, with GM-CSF introduced directly or together with an antibiotic to test the synergy. All experiments were conducted with cells harvested from exponential phase subcultures with an optical density at 600 nm (OD600) of 0.3 to 0.4.
In brief, after preparing an overnight culture of the tested strain in 25 ml LB medium, a subculture was prepared with an OD600 of 0.01 in 50 mL LB medium. The subculture was incubated at 37° C. with shaking at 200 rpm for 3-4 h, till an OD600 of 0.3 to 0.4 was reached. The exponential phase subculture was then divided equally into two centrifuge tubes, each containing 25 mL of the subculture. The subcultures were washed twice with 0.85% NaCl buffer by vortexing and then centrifuging at 4° C., 8000 rpm for 10 min each time. The washed subcultures/cells were resuspended in 25 mL 0.85% NaCl buffer and vortexed gently for 1 min. One of the tubes of subculture was selected for isolation of persisters by adding 200 μg/mL ciprofloxacin (for PAO1 and PDO300 strains) or 100 μg/mL ampicillin (for E. coli K12 strain). After adding the antibiotic for persister isolation, the subculture was incubated at 37° C., shaking at 200 rpm for 3.5 h.
To test the effects of GM-CSF on viability of persisters, the second tube was used to quantify the total number of viable cells and 1 mL of the washed persister cells was divided into 6 microcentrifuge tubes; 3 were control and the other 3 were GM-CSF treatment samples. In the treatment samples, GM-CSF was added to a concentration of 2.43 pg/mL (or 0.17 pM), the same as found in healthy human bodies. The control samples were supplemented with the same concentration of PBS and BSA as present in 2.43 pg/mL (or 0.17 pM) GM-CSF samples.
After incubating at 37° C. for 1 h with shaking at 200 rpm, the samples were plated on LB agar plates (15 g/L bacto agar) using drop plate method. The agar plates were then incubated for 24 h at 37° C. to count the total number of persister cells and understand the effect of 0.17 pM GM-CSF on the viability of persister cells.
To test the synergy with antibiotics, the above samples were then incubated at 37° C. for 3.5 h with shaking at 200 rpm after adding the selected antibiotic. After 3.5 h, the CFU of samples was quantified in the same way to understand if there is any synergy between GM-CSF and antibiotic. Similar treatments were performed on the total population in exponential phase as well. Apart from exponential phase, the synergistic effects of GM-CSF with antibiotics on total viable cells and persisters were also evaluated at stationary phase but PBS buffer (pH=7.4) was used in the experiments instead of 0.85% NaCl solution. Moreover, the 1 h and 3.5 h treatments were performed as co-treatments.

biofilm cells of PDO300 = experiment: Synergistic effects of GM-CSF, tobramycin and alginate lyase on biofilm cells of PDO300; assay type: cell-based, Pseudomonas aeruginosa; conditions: 2.43 pg/mL GM-CSF with 200 μg/mL tobramycin, 3.5 h
Experimental: This Example describes an experiment, similar to the one described in Example 5 with respect to the planktonic cells of PDO300, which was performed on the biofilm cells of PDO300.
In brief, after preparing an overnight culture, it was subcultured to an OD600 of 0.01 in a total volume of 20 mL M63 medium with 316L stainless steel coupons (1.75 cm×1 cm). The biofilm was grown for 24 h at 37° C. After incubation, the coupons were washed by gently dipping in 0.85% NaCl buffer twice using tweezers and then placed in new empty petri dishes.
To test the synergistic effects of GM-CSF (2.43 pg/mL), tobramycin (200 μg/mL) and alginate lyase (0.5 mg/mL), a total of 8 coupons were included. These 8 coupons were placed in 8 microcentrifuge tubes with 2 mL of 0.85% NaCl buffer. There were 4 treatments samples, with 2 coupons for each treatment (i) Control (ii) […] Tobramycin (iii) 200 μg/mL Tobramycin and 2.43 pg/mL GM-CSF and (iv) 200 μg/mL Tobramycin, 2.43 pg/mL GM-CSF and 0.5 mg/mL Alginate lyase. […]
After incubation, each coupon was gently washed with 0.85% NaCl buffer and placed in a test tube with 2 mL of 0.85% NaCl buffer. […] The CFU was counted after incubation at 37° C. for 24 h to quantify the total number of viable cells. The synergistic effects of GM-CSF, tobramycin and alginate lyase were quantified based on CFU data.

[1] = total viable cells, listed as factor

GM-CSF: granulocyte macrophage-colony stimulating factor, a cytokine secreted by macrophages; recombinant human GM-CSF (R&D systems) in binding tests
effect on E. coli persister cells (E. coli K12; compared to the pathogenic strain P. aeruginosa): ineffective
% change in avg. CFU/mL by GM-CSF (compared to GM-CSF free control) 20 μg/mL Tet (E. coli K12; persisters): −6.7%
% change in avg. CFU/mL by GM-CSF (compared to GM-CSF free control) With 2 μg/mL Cip (E. coli K12; persisters): −4.8%
% change in avg. CFU/mL by GM-CSF (compared to GM-CSF free control) With 70 μg/mL Tob (E. coli K12; persisters): +1.5%
% change in avg. CFU/mL by GM-CSF (compared to GM-CSF free control) With 200 μg/mL Gen (E. coli K12; persisters): +11.1%
% change in avg. CFU/ml after adding factor + CIP (E. coli K12; persisters): −6.18%
% change in avg. CFU/ml after adding factor + CIP (E. coli K12; persisters, listed as factor): −6.18%
% change in avg. CFU/ml after adding factor + TET (E. coli K12; persisters): +12.00%
% change in avg. CFU/ml after adding factor + TET (E. coli K12; persisters, listed as factor): +12.00%
% change in avg. CFU/ml after adding factor + TOB (E. coli K12; persisters): +11.16%
% change in avg. CFU/ml after adding factor + TOB (E. coli K12; persisters, listed as factor): +11.16%
% change in avg. CFU/ml after adding factor + GEN (E. coli K12; persisters): +18.52%
% change in avg. CFU/ml after adding factor + GEN (E. coli K12; persisters, listed as factor): +18.52%
% change in avg. CFU/mL by GM-CSF (compared to GM-CSF free control) 20 μg/mL Tet (E. coli K12; total viable cells): −19.0%
% change in avg. CFU/mL by GM-CSF (compared to GM-CSF free control) With 2 μg/mL Cip (E. coli K12; total viable cells): +5.9%
% change in avg. CFU/mL by GM-CSF (compared to GM-CSF free control) With 70 μg/mL Tob (E. coli K12; total viable cells): −32.0%
% change in avg. CFU/mL by GM-CSF (compared to GM-CSF free control) With 200 μg/mL Gen (E. coli K12; total viable cells): −31.3%
% change in avg. CFU/ml after adding factor + CIP (E. coli K12; total viable cells): +5.88%
% change in avg. CFU/ml after adding factor + CIP (E. coli K12; [1]): +5.88%
% change in avg. CFU/ml after adding factor + TET (E. coli K12; total viable cells): −19.05%
% change in avg. CFU/ml after adding factor + TET (E. coli K12; [1]): −19.05%
% change in avg. CFU/ml after adding factor + TOB (E. coli K12; total viable cells): −32.00%
% change in avg. CFU/ml after adding factor + TOB (E. coli K12; [1]): −32.00%
% change in avg. CFU/ml after adding factor + GEN (E. coli K12; total viable cells): −31.34%
% change in avg. CFU/ml after adding factor + GEN (E. coli K12; [1]): −31.34%
additional killing of biofilm cells compared to the 200 μg/mL tobramycin treatment alone (biofilm cells of PDO300): −24.7±5.3%
